ChEMBL document CHEMBL1134011, “LY294002-geldanamycin heterodimers as selective inhibitors of the PI3K and PI3K-related family” (Bioorg Med Chem Lett, 2001)

How the values were obtained:
[1] = Inhibition of Phoshoinositol 3 kinase; design: species or system Homo sapiens
[2] = target: Heat shock protein HSP 90-alpha (Homo sapiens, UniProt P07900); experiment: Competitive binding towards Heat shock protein HSP 90-alpha
[3] = Inhibition of Phoshoinositol 3 kinase from MCF-7 breast cancer cells; assay type: cell-based, Homo sapiens; conditions: mcf7
[4] = target: T1, DNA-dependent protein kinase catalytic subunit (Homo sapiens, UniProt P78527); experiment: Inhibition of DNA dependent protein kinase activity without hsp90 alpha protein
[5] = target: T1, DNA-dependent protein kinase catalytic subunit; experiment: Inhibition of DNA dependent protein kinase with hsp90 alpha protein

T1 sequence (P78527 whole entry): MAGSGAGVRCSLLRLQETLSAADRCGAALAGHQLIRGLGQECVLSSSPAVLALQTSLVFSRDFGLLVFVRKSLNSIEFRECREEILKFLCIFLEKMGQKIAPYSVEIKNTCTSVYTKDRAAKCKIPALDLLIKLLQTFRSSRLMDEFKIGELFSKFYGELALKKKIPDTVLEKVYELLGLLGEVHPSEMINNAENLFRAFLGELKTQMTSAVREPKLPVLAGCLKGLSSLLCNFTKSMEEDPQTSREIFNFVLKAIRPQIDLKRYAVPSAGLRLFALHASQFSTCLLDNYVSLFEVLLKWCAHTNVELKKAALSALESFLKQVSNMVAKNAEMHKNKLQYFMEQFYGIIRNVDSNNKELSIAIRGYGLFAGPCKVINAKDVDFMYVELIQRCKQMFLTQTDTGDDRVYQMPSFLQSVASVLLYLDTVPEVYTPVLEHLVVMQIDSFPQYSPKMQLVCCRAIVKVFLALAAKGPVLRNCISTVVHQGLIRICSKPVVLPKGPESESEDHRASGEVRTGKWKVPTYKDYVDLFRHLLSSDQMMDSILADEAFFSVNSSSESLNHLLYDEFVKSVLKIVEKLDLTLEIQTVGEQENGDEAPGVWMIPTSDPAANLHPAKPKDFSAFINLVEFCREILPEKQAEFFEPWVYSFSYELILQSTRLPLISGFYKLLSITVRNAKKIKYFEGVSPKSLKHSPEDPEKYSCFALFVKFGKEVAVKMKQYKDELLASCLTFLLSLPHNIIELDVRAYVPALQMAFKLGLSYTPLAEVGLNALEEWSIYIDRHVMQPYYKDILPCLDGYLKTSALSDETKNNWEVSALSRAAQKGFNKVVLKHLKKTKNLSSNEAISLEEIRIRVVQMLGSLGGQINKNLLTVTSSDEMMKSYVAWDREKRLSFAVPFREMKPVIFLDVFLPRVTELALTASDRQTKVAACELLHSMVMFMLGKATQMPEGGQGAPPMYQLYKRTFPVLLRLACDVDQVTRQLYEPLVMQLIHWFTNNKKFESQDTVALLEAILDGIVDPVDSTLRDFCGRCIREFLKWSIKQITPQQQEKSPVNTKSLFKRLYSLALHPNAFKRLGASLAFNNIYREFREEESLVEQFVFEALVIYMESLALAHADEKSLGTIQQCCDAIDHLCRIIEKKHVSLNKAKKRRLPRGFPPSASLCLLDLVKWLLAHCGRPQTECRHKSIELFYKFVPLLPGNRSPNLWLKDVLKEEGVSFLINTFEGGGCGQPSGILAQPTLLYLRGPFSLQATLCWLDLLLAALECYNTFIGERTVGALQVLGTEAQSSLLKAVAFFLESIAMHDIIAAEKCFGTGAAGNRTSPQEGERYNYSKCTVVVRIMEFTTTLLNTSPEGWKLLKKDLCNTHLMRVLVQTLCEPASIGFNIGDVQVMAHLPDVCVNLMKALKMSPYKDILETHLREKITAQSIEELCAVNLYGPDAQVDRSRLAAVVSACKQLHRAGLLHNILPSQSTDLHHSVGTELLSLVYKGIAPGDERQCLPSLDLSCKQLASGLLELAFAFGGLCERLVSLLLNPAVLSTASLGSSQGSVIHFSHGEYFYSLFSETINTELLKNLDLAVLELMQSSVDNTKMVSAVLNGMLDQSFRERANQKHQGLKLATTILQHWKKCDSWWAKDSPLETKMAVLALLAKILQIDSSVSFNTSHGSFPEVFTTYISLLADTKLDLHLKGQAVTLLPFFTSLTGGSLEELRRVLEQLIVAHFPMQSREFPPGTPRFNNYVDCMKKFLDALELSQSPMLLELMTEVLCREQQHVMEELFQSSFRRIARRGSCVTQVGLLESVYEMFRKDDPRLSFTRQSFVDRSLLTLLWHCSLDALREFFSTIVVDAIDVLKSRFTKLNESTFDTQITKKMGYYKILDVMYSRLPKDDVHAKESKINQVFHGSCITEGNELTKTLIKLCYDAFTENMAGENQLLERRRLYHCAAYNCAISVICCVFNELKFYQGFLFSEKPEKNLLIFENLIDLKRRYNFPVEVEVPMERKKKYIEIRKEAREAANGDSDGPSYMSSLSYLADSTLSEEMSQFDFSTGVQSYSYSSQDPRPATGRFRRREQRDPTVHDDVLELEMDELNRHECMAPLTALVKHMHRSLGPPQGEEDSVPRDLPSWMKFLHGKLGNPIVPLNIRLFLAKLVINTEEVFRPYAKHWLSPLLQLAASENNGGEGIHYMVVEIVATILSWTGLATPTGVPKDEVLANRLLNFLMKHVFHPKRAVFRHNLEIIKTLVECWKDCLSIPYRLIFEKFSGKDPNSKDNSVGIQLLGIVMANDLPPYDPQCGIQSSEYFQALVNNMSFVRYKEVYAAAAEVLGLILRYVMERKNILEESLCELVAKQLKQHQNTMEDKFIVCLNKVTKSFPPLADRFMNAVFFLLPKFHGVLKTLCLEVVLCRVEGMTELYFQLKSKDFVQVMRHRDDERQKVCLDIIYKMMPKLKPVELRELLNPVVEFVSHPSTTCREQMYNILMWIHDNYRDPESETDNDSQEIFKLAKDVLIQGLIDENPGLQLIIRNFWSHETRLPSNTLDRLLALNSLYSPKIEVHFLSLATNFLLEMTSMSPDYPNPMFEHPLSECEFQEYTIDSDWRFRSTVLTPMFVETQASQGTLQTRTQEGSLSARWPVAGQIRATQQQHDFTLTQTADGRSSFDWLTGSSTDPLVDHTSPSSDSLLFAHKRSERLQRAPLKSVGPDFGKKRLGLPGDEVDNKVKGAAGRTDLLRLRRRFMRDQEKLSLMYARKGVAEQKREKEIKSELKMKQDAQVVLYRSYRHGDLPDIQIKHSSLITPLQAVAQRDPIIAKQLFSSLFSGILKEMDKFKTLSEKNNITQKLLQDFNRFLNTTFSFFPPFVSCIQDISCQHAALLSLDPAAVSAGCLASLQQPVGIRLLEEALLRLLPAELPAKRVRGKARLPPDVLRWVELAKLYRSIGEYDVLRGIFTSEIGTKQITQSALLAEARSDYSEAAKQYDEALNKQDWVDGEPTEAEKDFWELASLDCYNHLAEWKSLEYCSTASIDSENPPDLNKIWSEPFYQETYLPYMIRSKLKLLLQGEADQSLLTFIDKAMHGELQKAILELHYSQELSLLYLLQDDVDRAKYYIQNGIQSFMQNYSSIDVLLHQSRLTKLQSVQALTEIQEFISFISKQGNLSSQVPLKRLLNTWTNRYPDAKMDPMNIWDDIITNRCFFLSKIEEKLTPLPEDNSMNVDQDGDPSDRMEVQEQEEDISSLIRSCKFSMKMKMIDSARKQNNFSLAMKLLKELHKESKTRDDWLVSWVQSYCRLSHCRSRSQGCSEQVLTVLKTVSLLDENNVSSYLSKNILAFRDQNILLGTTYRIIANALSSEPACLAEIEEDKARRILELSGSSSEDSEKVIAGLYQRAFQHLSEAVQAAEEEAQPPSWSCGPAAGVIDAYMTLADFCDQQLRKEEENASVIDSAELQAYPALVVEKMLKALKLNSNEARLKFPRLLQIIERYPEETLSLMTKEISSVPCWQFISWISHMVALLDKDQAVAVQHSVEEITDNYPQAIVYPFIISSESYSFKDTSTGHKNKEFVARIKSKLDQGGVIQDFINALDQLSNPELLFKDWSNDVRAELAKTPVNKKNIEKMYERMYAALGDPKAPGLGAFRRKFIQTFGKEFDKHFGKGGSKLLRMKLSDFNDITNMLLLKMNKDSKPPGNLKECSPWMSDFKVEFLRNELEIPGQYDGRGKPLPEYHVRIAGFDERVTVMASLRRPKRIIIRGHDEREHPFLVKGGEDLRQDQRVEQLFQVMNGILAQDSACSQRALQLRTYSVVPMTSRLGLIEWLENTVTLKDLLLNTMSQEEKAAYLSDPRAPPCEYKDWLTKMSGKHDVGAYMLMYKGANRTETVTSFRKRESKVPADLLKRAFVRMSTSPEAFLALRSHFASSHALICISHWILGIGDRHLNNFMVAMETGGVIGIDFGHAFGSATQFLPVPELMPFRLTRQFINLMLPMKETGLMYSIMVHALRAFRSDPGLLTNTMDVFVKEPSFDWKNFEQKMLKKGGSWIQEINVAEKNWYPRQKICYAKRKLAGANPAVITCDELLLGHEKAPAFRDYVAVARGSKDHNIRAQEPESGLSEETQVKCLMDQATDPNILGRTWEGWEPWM

Row | SMILES | IC50 [1] | EC50 [2] | IC50 [3] | IC50 [4] | IC50 [5]
1 | O=c1cc(N2CCOCC2)oc2c1ccc1ccccc12 | 6 µM |  |  |  | 
2 | CO[C@H]1/C=C\C=C(/C)C(=O)NC2=CC(=O)C(NCCCCCCOc3ccc4c(=O)cc(N5CCOCC5)oc4c3)=C(C[C@@H](C)C[C@H](OC)[C@H](O)[C@@H](C)/C=C(\C)[C@@H]1OC(N)=O)C2=O |  | 4 µM | > 500 µM | 6.1 µM | 
3 | CO[C@H]1/C=C\C=C(/C)C(=O)NC2=CC(=O)C(NCCCC#Cc3cccc4c(=O)cc(N5CCOCC5)oc34)=C(C[C@@H](C)C[C@H](OC)[C@H](O)[C@@H](C)/C=C(\C)[C@@H]1OC(N)=O)C2=O |  | > 50 µM | 13.5 µM | 13.4 µM | 
4 | CO[C@H]1/C=C\C=C(/C)C(=O)NC2=CC(=O)C(NCC#Cc3cccc4c(=O)cc(N5CCOCC5)oc34)=C(C[C@@H](C)C[C@H](OC)[C@H](O)[C@@H](C)/C=C(\C)[C@@H]1OC(N)=O)C2=O |  | 7 µM | 3 µM | 3 µM | 
5 | CO[C@H]1/C=C\C=C(/C)C(=O)NC2=CC(=O)C(NCCCCCOc3ccc4c(=O)cc(N5CCOCC5)oc4c3)=C(C[C@@H](C)C[C@H](OC)[C@H](O)[C@@H](C)/C=C(\C)[C@@H]1OC(N)=O)C2=O |  | 2.5 µM | 310 µM | 10 µM | 5 µM
6 | CO[C@H]1/C=C\C=C(/C)C(=O)NC2=CC(=O)C(NCCCOc3ccc4c(=O)cc(N5CCOCC5)oc4c3)=C(C[C@@H](C)C[C@H](OC)[C@H](O)[C@@H](C)/C=C(\C)[C@@H]1OC(N)=O)C2=O |  | 26 µM | > 500 µM | 28 µM | 
7 | CO[C@H]1/C=C\C=C(/C)C(=O)NC2=CC(=O)C(NCCCCCCCOc3ccc4c(=O)cc(N5CCOCC5)oc4c3C)=C(C[C@@H](C)C[C@H](OC)[C@H](O)[C@@H](C)/C=C(\C)[C@@H]1OC(N)=O)C2=O |  | 46 µM | 5 µM | 3.7 µM | 
8 | CO[C@H]1/C=C\C=C(/C)C(=O)NC2=CC(=O)C(NCCOCCOc3ccc4c(=O)cc(N5CCOCC5)oc4c3)=C(C[C@@H](C)C[C@H](OC)[C@H](O)[C@@H](C)/C=C(\C)[C@@H]1OC(N)=O)C2=O |  | 16 µM | 85 µM | 33 µM | 
9 | C=CCNC1=C2C[C@@H](C)C[C@H](OC)[C@H](O)[C@@H](C)/C=C(\C)[C@H](OC(N)=O)[C@@H](OC)/C=C\C=C(/C)C(=O)NC(=CC1=O)C2=O [TANESPIMYCIN] |  |  | > 500 µM | > 40 µM | 
10 | CO[C@H]1/C=C\C=C(/C)C(=O)NC2=CC(=O)C(NCCCCOc3ccc4c(=O)cc(N5CCOCC5)oc4c3)=C(C[C@@H](C)C[C@H](OC)[C@H](O)[C@@H](C)/C=C(\C)[C@@H]1OC(N)=O)C2=O |  | 10 µM | 200 µM | 13.9 µM | 
11 | CO[C@H]1/C=C\C=C(/C)C(=O)NC2=CC(=O)C(NCCCCCCCCOc3ccc4c(=O)cc(N5CCOCC5)oc4c3C)=C(C[C@@H](C)C[C@H](OC)[C@H](O)[C@@H](C)/C=C(\C)[C@@H]1OC(N)=O)C2=O |  | 28 µM | 28 µM | 1.75 µM | 
12 | CO[C@H]1/C=C\C=C(/C)C(=O)NC2=CC(=O)C(NCCOCCOc3ccc4c(=O)cc(N5CCOCC5)oc4c3C)=C(C[C@@H](C)C[C@H](OC)[C@H](O)[C@@H](C)/C=C(\C)[C@@H]1OC(N)=O)C2=O |  | > 50 µM | 70 µM | 12.2 µM | 
13 | O=c1cc(N2CCOCC2)oc2ccccc12 |  | > 50 µM | 14 µM | 4.3 µM | 
